Usually IC50 stands for the concentration at which inhibition is half-maximal.

Molecules are shown by their SMILES. Where two headings read alike, the source gives them in different places.

The subject of experiment [1] is NMDA receptor. Particulars: reference antagonists, general statement; cited from earlier work.
Experiment [2] addresses glycine receptor of the NMDA receptor complex. The experiment is described as follows: [3H]-glycine binding assay (Test A). The arrangement: species or system rat (Sprague-Dawley). Particulars: [3H]-glycine 20 nM, rat cortex/hippocampus membranes, pH 7.1, 30 min, 4° C. The source says:
(§1) The actions of compounds according to the invention as antagonists at the glycine receptor of the NMDA receptor complex can be shown by one or more standard tests such as the [^3 H]-glycine binding assay (Test A), by functional assays in vitro such as tests for measuring glutamate-evoked contractions of the guinea pig ileum (Test B) and/or tests for measuring antagonism of NMDA-induced evoked response in hippocampal slices (Test C), and by tests in vivo such as ischemia induced by carotid occlusion in the gerbil model (Test D).
In the [^3 H]-glycine binding assay, neuronal synaptic membranes are prepared from adult (about 250 g) male Sprague-Dawley rats. Freshly dissected cortices and hippocampi are homogenized in 0.32M sucrose (110 mg/mL). Synaptosomes are isolated by centrifugation (1000 xg, 10 min), the supernatant is pelleted (20,000 xg, 20 min) and resuspended in double-distilled water. The suspension was centrifuged for 20 minutes at 8,000 xg. The resulting […] and bully coat are washed twice (48,000 xg, 10 mins, resuspension in double-deionized water). The final pellet is quickly frozen (dry ice/ethanol bath) under double-deionized water and stored at -70° C.
On the day of the experiment, thawed synaptic membranes are homogenized with a Brinkmann Polytron (tm, Brinkmann Instruments, Westbury, N.Y.) tissue homogenizer in 50 millimolar tris(hydroxymethyl)aminomethane citrate, pH 7.1. The membranes are incubated with 0.04% Sufact-AMPS X100 (tm, Pierce, Rockford, Ill.) in buffer for 20 minutes at 37° C. and washed six times by centrifugation (48,000 xg, 10 min) and resuspended in buffer. The final pellet is homogenized at 200 mg wet weight/mL of the buffer for the binding assay.
For [^3 H]-glycine binding at the N-methyl-D-aspartate receptor, 20 nanomolar [^3 H]-glycine (40-60 Ci/mmol, New England Nuclear, Boston, Mass.) is incubated with the membranes suspended in 50 millimolar tris (hydroxymethyl)aminomethane citrate, pH 7.1 for 30 minutes at 4° C. […] Radioactivity is estimated by liquid scintillation counting. […]

Experiment [3] concerns neuronal damage in the hippocampus. The experiment is described as follows: gerbil ischemic model, bilateral carotid occlusion (Test D). The conditions noted are these: 10 mg/Kg ip, pre- and post-occlusion (e.g. 45 min before and 5 min after). It counts as in vivo, Mongolian gerbils.
From the text: as §1
When testing in vivo using the gerbil ischemic model, adult female Mongolian gerbils (50-70 g) are anesthetized with 2 to 3 % halothane. The bilateral common carotid arteries at the neck are exposed and occluded with microaneurysm clips. After 10 min (unless specified), the clips are removed and the blood flow through the carotid arteries is restored and the skin is sutured. Test compounds are administered intraperitoneally both pre- and post-occlusion, for example 45 minutes before and 5 minutes after occlusion of the carotid arteries. Sham-operated animals are treated in the same manner except that the arteries are not clamped. Gross behavioral observations along with motor activity are recorded for 2 hr on the first (24 hr) day following the occlusion. After 4 days, subjects are sacrificed (decapitation), brains are removed, fixed, sectioned and stained with hematoxylin/eosin and cresyl violet.
The brain sections are rated for neuronal damage in the hippocampus using the following rating scale:
1=slight damage (up to 25%)--restricted to CA1/subiculum border
2=moderate damage (up to 50%)--obvious damage, restricted to less than half of CA1 field
3=marked damage (up to 75%)--involving greater than half of CA1 field
4=damage extending beyond CA1 field
Sections (7 micron) are evaluated from each brain. […] The average brain damage rating score for each group is recorded, and the damage scores of the drug treated group are compared to the vehicle-treated group using Wilcoxon-Rank Sum test. […]

Experiment [4] concerns the target glycine receptor of the NMDA receptor complex (Cavia porcellus, UniProt A0A286XML8). The experiment is described as follows: glutamate-evoked contractions of the guinea pig ileum (Test B). It counts as cell-based. Particulars: 100 micromolar glutamate-evoked contractions, compound 5 min before glutamate.
From the text: as §1
For glutamate-evoked contractions of the guinea pig ileum, the methodology is as described previously (Luzzi et. al., Br. J. Pharmacol., 95, 1271-1277 (1989)). The longitudinal muscle and associated myenteric plexus are removed and placed in oxygenated modified Krebs-Henseleit solution (118 millimolar NaCl, 4.7 millimolar KCl, 2.5 millimolar CaCl, 1.2 millimolar KH2 PO4, 25 millimolar NaHCO3, and 11 millimolar glucose). Tissues are suspended on glass rods in organ baths under a resting tension of 0.5 g. After an initial depolarization with 80 millimolar potassium ion to remove possible blockade of the NMDA receptor channel complex with magnesium, twitch responses are evoked with 100 micromolar glutamate. Isometric mechanical responses are recorded. Tissues are equilibrated for at least 2 hours prior to addition of compounds.
A dose response curve for the effect of the unknown on the magnitude of the glutamate-evoked contractions is generated. Glutamate-evoked contractions are generated at 20 minute intervals, with the test compound added 5 minutes before the glutamate. The magnitude of the contraction with each dose of the unknown is expressed relative to the control, the third contraction evoked by 100 micromolar glutamate alone in the same tissue bath. The IC50 is obtained from a least-squares regression of a logit-log transformation of the data.
After the last contraction for the dose-response curve, 100 micromolar glycine is added to the bath 10 minutes after the previous addition of glutamate. […]

For experiment [5], the system named is NMDA receptor. Kind of experiment: hippocampal slice test (HST), antagonism of NMDA-induced evoked response (Test C). In kind it is cell-based, rat (Sprague-Dawley). The conditions noted are these: 5 μM, 0 Mg++.
From the text: as §1
The characterization of a compound as a glycine antagonist in the hippocampal slice test (HST) is dependent on (1) the ability of the compound to inhibit NMDA receptor-mediated synaptic transmission in hippocampal slices and (2) the subsequent reversal of these inhibitory effects by D-serine.
The procedure for the HST is as follows. Transverse hippocampal slices are obtained from male Sprague-Dawley rats weighting 80-150 gm. […]
For the electrophysiology part of the experiments, bipolar tungsten stimulating electrodes are positioned in the stratum radiatum of the CA3 cell body region of the hippocampus and a single-barrel glass microelectrode filled with Krebs-Ringer solution is positioned in the CA1 cell body region. Low frequency stimulation is then applied to area CA3 which evokes a primary population spike (PS) recorded from CA1. […]

As to `NC(CCCP(=O)(O)O)C(=O)O` (stereo not shown) [APV], in the experiment on NMDA receptor [1], the “reversal of the inhibition by D-serine” value is recorded as “not reversed by D-serine”.
For the compound `c1ccc(C2(N3CCCCC3)CCCCC2)cc1` [PCP], the “reversal of the inhibition by D-serine” value in the experiment on NMDA receptor [1] is on record as “not reversed by D-serine”.
Consider `O=C(O)c1cc(O)c2ccc(Cl)cc2n1` [7-chlorokynurenic acid], for which, in the experiment with NMDA receptor [1], the “inhibition of the secondary PSs” value is “inhibit the secondary PSs” and the “reversal of the inhibition by D-serine” value was “reversed by D-serine”.
`O=c1[nH][nH]c(=O)c2c(O)c3ccc([N+](=O)[O-])cc3nc12` [Example 11, 2,3-Dihydro-10-hydroxy-7-nitropyridazino[4,5-b]quinoline-1,4-dione]: the results for the IC50 in experiment [2] and in experiment [4] were 8500 nM and 86000 nM, respectively. Moreover, the “neuroprotection (relative to sham-operated control)” value in experiment [3] is given as “over 60%”.
Consider `C[C@]12N[C@H](Cc3ccccc31)c1ccccc12` [MK-801], for which, in the experiment on NMDA receptor [1], the “reversal of the inhibition by D-serine” value was “not reversed by D-serine”.
Take `O=c1[nH][nH]c(=O)c2c(O)c3c(Cl)cc(Cl)cc3nc12` [Example 4, 7,9-Dichloro-2,3-dihydro-10-hydroxypyridazino[4,5-b]quinoline-1,4-dione]: the IC50 was found to be 80 nM in experiment [2] and 2300 nM in experiment [4]. The “neuroprotection (relative to sham-operated control)” value in experiment [3] is given as “Over 70%”.
Take `O=c1[nH][nH]c(=O)c2c(O)c3ccc(Cl)cc3nc12` [Example 2, 7-Chloro-2,3-dihydro-10-hydroxypyridazino[4,5-b]quinoline-1,4-dione]: the IC50 was determined as 240 nM in experiment [2] and 2100 nM in experiment [4]. In addition, in experiment [3], the “neuroprotection (relative to sham-operated control)” value was “Over 70%”. Also, the “antagonism in the hippocampal slice test (inhibition of secondary population spikes)” value in the experiment on NMDA receptor [5] was “antagonist”. For the same compound, the “reversal of the inhibition by D-serine” value in the experiment with NMDA receptor [5] was “reversed by D-serine”.
As for `O=C(O)C1CN(CCCP(=O)(O)O)CCN1` (stereo not shown) [CPP], the “reversal of the inhibition by D-serine” value in the experiment with NMDA receptor [1] is “not reversed by D-serine”.
Consider `NC1CCN(O)C1=O` (stereo not shown) [HA-966], for which, in the experiment with NMDA receptor [1], the “inhibition of the secondary PSs” value is on record as “inhibit the secondary PSs” and the “reversal of the inhibition by D-serine” value is given as “reversed by D-serine”.
